Experimental data published in US12275731B2, “Azaindole inhibitors of wild-type and mutant forms of LRRK2” (DANA-FARBER CANCER INSTITUTE, INC., priority 2018, dated 2025).

Experiments:
Assay in all cases: KinomeScan profiling
Format in all cases: binding
[1] = biological target: FLT4 (Homo sapiens, UniProt P35916); conditions: FLT4, 1 μM; read-out: % control
Method in brief: (§1)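 The panel spans 468 kinases, and each inventive compound was applied at 1 μM from DMSO. Lower % control means stronger binding; the activity cut-off is set at less than 35%.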

[2] = biological target: T1, ALK (Homo sapiens, UniProt Q9UM73); conditions: read-out: % control
T1 construct: purchased KinomeScan®
T1 sequence (Q9UM73 19-1620): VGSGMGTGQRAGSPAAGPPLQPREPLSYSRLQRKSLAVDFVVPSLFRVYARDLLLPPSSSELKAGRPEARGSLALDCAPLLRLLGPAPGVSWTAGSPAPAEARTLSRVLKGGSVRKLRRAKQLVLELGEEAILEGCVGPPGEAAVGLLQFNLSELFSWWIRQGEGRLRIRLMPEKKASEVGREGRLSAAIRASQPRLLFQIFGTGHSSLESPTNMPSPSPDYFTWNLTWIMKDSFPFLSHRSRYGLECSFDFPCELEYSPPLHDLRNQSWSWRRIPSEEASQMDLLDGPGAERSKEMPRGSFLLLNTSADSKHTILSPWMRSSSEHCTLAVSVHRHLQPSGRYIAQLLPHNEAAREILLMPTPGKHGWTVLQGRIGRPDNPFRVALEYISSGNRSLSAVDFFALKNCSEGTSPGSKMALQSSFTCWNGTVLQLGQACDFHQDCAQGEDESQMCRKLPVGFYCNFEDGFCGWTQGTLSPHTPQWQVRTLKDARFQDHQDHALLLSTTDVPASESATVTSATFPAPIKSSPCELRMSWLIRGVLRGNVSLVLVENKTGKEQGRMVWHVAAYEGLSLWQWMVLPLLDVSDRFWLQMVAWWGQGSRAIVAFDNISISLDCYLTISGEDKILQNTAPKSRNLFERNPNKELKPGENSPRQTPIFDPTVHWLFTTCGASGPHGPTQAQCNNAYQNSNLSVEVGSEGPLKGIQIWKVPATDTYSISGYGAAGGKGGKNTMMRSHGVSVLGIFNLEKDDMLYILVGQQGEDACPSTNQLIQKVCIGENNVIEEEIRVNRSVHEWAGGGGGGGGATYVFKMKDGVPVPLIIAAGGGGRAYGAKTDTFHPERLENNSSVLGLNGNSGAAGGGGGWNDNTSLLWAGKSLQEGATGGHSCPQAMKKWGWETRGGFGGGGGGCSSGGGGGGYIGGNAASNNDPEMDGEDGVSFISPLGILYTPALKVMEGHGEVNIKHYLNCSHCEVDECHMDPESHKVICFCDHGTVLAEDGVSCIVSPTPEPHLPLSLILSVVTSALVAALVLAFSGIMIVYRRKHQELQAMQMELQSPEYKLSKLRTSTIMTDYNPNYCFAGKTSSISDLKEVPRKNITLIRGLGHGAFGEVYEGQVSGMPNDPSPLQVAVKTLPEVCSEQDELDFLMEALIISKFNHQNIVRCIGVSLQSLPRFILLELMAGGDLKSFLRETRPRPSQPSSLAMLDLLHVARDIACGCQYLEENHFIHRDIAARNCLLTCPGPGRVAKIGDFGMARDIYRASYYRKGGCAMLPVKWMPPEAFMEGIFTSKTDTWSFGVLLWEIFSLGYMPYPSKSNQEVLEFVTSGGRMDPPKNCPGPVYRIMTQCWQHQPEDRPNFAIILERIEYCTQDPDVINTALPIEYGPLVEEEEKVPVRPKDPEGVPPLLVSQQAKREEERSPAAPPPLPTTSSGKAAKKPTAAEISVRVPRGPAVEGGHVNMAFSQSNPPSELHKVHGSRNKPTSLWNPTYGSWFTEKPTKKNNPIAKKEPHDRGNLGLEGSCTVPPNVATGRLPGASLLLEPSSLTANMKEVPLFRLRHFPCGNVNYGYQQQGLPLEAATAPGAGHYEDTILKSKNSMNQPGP
Method in brief: as §1

[3] = biological target: MARK2 (Homo sapiens, UniProt Q7KZI7); conditions: MARK2, 1 μM; read-out: % control
Sequence of MARK2 (Q7KZI7 whole entry): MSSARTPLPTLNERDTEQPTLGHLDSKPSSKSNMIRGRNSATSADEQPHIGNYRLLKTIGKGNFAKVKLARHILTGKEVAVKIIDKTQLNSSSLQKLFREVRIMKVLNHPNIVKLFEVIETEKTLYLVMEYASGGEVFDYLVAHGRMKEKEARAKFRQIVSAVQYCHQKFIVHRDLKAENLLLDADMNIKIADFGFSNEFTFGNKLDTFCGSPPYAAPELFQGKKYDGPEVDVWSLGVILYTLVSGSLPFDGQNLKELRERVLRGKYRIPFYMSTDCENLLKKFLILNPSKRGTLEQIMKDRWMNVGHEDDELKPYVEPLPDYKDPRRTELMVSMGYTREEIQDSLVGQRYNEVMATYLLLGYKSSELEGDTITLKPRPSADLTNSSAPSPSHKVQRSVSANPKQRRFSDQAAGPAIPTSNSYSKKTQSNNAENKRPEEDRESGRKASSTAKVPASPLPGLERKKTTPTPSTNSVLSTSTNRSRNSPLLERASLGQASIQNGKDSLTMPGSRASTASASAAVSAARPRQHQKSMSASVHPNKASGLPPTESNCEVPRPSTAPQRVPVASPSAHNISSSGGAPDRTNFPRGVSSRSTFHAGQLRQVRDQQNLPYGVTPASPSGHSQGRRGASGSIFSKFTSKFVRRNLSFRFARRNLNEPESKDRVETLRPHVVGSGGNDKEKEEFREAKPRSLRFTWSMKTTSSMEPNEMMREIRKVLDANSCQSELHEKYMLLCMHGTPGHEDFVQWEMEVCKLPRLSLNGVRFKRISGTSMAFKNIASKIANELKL
Method in brief: as §1

[4] = biological target: T2, PKMYT1 (Homo sapiens, UniProt Q99640); conditions: PKMYT1, 1 μM; read-out: % control
T2 sequence (Q99640 1-499): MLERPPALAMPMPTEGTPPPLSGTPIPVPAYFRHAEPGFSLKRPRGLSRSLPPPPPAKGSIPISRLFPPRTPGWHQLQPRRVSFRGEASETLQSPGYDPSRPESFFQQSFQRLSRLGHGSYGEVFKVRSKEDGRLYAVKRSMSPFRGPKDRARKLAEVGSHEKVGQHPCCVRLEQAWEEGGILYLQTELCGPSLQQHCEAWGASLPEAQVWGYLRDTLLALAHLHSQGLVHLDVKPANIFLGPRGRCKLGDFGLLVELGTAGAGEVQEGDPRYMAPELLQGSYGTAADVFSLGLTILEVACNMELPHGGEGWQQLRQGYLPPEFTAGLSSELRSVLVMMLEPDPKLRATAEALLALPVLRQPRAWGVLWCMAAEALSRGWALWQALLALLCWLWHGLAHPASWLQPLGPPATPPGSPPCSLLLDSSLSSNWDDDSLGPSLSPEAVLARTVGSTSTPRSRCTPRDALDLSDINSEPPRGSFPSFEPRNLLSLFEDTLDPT
Method in brief: as §1

[5] = biological target: RIOK2 (Homo sapiens, UniProt Q9BVS4); conditions: RIOK2, 1 μM; read-out: % control
Method in brief: as §1

[6] = biological target: QSK (Homo sapiens, UniProt Q9Y2K2); conditions: read-out: % control
Method in brief: as §1

[7] = biological target: T3, PIK3CA(C420R) (Homo sapiens, UniProt P42336, C420R); conditions: read-out: % control
T3 construct: purchased KinomeScan® (panel service)
T3 sequence (P42336 whole entry C420R): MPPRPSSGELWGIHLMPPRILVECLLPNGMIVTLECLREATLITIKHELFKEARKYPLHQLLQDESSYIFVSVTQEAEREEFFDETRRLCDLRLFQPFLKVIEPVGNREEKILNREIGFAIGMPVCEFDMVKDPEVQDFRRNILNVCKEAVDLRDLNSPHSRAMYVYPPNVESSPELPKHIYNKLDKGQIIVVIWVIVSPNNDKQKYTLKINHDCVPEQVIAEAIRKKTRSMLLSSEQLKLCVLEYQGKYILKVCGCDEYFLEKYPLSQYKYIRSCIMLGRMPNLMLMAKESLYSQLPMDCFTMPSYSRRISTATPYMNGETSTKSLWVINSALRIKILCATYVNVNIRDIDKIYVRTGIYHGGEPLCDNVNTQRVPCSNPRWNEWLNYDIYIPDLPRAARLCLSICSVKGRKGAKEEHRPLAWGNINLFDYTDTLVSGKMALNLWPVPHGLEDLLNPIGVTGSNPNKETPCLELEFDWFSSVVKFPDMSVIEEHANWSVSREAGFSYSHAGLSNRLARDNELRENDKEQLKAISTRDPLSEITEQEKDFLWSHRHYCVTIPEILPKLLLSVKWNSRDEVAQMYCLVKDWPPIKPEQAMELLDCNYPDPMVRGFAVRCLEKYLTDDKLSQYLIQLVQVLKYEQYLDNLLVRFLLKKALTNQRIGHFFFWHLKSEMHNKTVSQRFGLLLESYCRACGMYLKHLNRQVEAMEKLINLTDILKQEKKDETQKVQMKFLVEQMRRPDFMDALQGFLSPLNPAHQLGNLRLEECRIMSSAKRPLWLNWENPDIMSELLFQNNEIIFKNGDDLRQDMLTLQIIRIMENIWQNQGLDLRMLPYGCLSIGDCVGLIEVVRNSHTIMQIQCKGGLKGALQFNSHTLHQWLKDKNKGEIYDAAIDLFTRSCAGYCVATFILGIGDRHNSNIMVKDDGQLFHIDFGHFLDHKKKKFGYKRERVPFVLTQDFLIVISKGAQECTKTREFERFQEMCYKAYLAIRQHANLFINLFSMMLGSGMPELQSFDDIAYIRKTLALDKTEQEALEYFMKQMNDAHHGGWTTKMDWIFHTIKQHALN
Method in brief: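 Compounds were screened at 1 μM in DMSO across a 468-kinase KinomeScan panel. Binding was expressed as % control, scaled between a positive control (0%) and DMSO (100%) using luminescence signal. A value under 35% counted as active.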

[8] = biological target: EGFR(G719S) (Homo sapiens, UniProt P00533, G719S); conditions: read-out: % control
Sequence of EGFR(G719S) (P00533 25-1210 G719S): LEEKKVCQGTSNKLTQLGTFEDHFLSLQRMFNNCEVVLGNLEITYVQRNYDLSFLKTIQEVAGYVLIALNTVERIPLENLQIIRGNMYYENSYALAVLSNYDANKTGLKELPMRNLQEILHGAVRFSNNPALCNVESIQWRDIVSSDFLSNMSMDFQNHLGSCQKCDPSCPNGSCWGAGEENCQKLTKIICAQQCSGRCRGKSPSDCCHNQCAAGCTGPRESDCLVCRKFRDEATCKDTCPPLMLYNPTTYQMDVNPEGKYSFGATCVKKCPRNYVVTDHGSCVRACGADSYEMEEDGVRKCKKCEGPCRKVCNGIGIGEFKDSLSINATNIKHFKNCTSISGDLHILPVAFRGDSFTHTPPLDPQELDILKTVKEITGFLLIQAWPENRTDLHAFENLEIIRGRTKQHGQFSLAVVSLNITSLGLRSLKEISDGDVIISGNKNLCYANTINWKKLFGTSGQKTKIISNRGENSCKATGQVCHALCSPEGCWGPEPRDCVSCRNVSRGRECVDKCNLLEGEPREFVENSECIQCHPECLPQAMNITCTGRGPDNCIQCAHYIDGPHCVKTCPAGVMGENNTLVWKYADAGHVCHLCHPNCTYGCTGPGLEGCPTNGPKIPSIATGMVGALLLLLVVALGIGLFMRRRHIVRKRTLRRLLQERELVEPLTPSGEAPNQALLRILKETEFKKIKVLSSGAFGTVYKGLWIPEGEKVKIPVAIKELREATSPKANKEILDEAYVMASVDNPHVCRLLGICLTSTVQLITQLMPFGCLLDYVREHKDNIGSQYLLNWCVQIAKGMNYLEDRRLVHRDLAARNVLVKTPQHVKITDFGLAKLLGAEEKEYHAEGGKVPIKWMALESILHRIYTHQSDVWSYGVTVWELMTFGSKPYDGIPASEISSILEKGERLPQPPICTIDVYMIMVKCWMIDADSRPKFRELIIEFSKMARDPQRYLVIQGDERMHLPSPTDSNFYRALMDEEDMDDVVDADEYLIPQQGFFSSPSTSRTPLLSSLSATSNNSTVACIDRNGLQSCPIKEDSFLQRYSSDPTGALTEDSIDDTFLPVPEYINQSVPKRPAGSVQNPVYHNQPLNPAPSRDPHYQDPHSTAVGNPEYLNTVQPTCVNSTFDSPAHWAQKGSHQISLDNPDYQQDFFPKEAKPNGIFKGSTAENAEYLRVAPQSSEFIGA
Method in brief: as §1

[9] = biological target: T4, MST1 (Homo sapiens, UniProt Q13043); conditions: MST1, 1 μM; read-out: % control
T4 sequence (Q13043 1-487): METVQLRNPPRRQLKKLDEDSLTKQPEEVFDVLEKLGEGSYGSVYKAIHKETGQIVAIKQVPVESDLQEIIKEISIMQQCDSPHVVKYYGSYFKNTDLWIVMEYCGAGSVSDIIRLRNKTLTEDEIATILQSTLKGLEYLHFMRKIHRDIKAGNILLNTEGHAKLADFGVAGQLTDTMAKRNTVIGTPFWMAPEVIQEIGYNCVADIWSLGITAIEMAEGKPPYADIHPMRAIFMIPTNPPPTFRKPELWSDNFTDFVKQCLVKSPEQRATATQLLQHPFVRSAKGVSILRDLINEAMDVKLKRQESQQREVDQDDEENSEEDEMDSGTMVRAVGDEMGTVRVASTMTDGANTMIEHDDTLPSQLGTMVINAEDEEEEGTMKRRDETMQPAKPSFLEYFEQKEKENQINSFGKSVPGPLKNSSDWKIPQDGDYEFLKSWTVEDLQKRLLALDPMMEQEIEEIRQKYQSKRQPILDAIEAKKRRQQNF
Method in brief: as §1

[10] = biological target: T5, GRK1 (Homo sapiens, UniProt Q15835); conditions: GRK1, 1 μM; read-out: % control
T5 sequence (Q15835 1-563): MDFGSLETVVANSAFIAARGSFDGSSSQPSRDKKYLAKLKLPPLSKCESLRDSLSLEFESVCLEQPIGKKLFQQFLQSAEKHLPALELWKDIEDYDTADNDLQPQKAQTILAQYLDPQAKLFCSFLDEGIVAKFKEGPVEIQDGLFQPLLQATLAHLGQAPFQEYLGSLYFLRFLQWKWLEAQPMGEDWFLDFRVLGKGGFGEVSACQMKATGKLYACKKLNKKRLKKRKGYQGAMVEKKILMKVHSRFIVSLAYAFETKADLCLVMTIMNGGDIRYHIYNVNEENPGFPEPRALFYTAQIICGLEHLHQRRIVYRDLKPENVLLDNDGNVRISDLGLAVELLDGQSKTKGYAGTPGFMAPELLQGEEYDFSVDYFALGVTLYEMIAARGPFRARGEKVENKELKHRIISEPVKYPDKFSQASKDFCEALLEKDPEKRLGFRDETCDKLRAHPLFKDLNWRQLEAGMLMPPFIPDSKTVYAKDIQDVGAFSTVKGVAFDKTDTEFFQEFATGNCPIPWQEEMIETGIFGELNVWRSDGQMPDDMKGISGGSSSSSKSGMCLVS
Method in brief: as §1

SMILES | remaining binding at 1 µM [1] [%] | remaining binding at 1 µM [2] [%] | remaining binding at 1 µM [3] [%] | remaining binding at 1 µM [4] [%] | remaining binding at 1 µM [5] [%] | remaining binding at 1 µM [6] [%] | remaining binding at 1 µM [7] [%] | remaining binding at 1 µM [8] [%] | remaining binding at 1 µM [9] [%] | remaining binding at 1 µM [10] [%]
CNc1c(-c2ccc(C(=O)N3CCC(N4CCOCC4)CC3)cc2)cnc2[nH]cc(Cl)c12 [Compound 96, (4-(3-chloro-4-(methylamino)-1H-pyrrolo[2,3-b]pyridin-5-yl)phenyl)(4-morpholinopiperidin-1-yl)methanone] | 66 | 46 | 60 | 100 | 26 | 76 | 75 | 100 | 81 | 63
O=C(c1ccc(-c2cnc3[nH]cc(Cl)c3c2NC2CCCC2)cc1)N1CCC(N2CCOCC2)CC1 [Compound 101, (4-(3-chloro-4-(cyclopentylamino)-1H-pyrrolo[2,3-b]pyridin-5-yl)phenyl)(4-morpholinopiperidin-1-yl)methanone] | 100 | 75 | 68 | 97 | 28 | 97 | 100 | 100 | 82 | 84
CNc1c(-c2cnn([C@H]3CCN(C(C)=O)C[C@@H]3F)c2)cnc2[nH]cc(Cl)c12 [Compound 77, 1-((3S,4S)-4-(4-(3-chloro-4-(methylamino)-1H-pyrrolo[2,3-b]pyridin-5-yl)-1H-pyrazol-1-yl)-3-fluoropiperidin-1-yl)ethan-1-one] | 47 | 40 | 86 | 98 | 73 | 76 | 75 | 100 | 93 | 60
